Data from patent US20130045299A1, “Natural Mold Inhibitor and Methods of Using Same” (priority 2011, published 2013).

What was measured:
mold = assay: Mold-free shelf life of packaged bread, inspected daily (days to mold)
Procedure: Bread is prepared using the no-time, straight dough method by mixing the following ingredients in a Hobart A200 mixer with a McDuffy attachment for a total of 8 minutes until full gluten development is obtained: flour (100%), water (68%), granulated sugar (7%), shortening (4%), fresh yeast (2.5%), 30% acetic acid vinegar or 300 grain vinegar (0%, 2%, 1% or 0.5%), and citric acid (0% or 0.1%). Mixed dough is rested for 10 minutes on bench then scaled into two 520 gram dough pieces and rounded by hand. Rounded dough is rested 10 minutes then is sheeted and molded into logs. Sheeted and molded logs are placed into oiled bread pans and placed into proof box (National Manufacturing) and set to 110° F. and 80% relative humidity. Dough is proofed to a consistent height, as measured by a template which was 0.75 inches above the rim of the bread pan. Proof time is considered to be time for dough to touch the top of the template minus initial time in the proof box. Proofed dough is then placed into an oven and baked for 20 minutes at a temperature of 420° F. Internal temperature of the bread exiting the oven is 195° F.-200° F. Baked bread is cooled at room temperature on a wire rack for one hour to an internal temperature of between 95° F. and 100° F. After cooling, bread is sliced and packaged in plastic bags and sealed with twist ties. Packaged bread is stored at room temperature 70° F.-75° F. and visually inspected for mold appearance on a daily basis. Bread is considered as expired/failed upon first sign of mold.
Mixed dough is rested for 10 minutes on bench then scaled into two 520 gram dough pieces and rounded by hand. Rounded dough is rested 10 minutes then sheeted and molded into logs. Sheeted and molded logs are placed into oiled bread pans and placed into proof box (National Manufacturing) set to 110° F. and 80% relative humidity. Dough is proofed to a consistent height, as measured by a template which was 0.75 inches above the rim of the bread pan. Proof time is considered to be time for dough to touch the top of the template minus initial time in the proof box. Proofed dough is then placed into an oven and is baked for 20 minutes at a temperature of 420° F. The internal temperature of the bread exiting the oven is 195° F.-200° F. Baked bread is cooled at room temperature on a wire rack for one hour to an internal temperature of between 95° F. and 100° F. After cooling, the bread is sliced and packaged in plastic bags and sealed with twist ties.
Packaged bread is stored at room temperature 70° F.-75° F. Packaged bread is visually inspected for mold appearance on a daily basis. Bread is considered as expired/failed upon first sign of mold.

pH of baked bread = type: physicochemical

With CCC(=O)[O-].CCC(=O)[O-].[Ca+2] [Calcium Propionate, calcium propionate] as the compound, how does the “Days to Mold” value (mold; Table 4, 0.33%) read?
Its value is 15 days.

And the “Days to Mold” value (mold; Table 4, 0.5%)?
Its value is 17 days.

And the “Days to Mold” value (mold; Table 6, white pan bread, 0.33%)?
Its value is 14 days.

What about the “Days to Mold” value (mold; Table 7, white pan bread, 0.33%) of the same compound?
The value was 14 days.

And the “Days to Mold” value (mold; Table 8, 0.33% (flour basis))?
The value was 9 days.

What about the “Days to Mold” value (mold; Table 8, 0.50% (flour basis)) of the same compound?
The value was 12 days.

What about the “Days to Mold” value (mold; Table 8, 0.75% (flour basis)) of the same compound?
Its value is 23 days.

And the “Days to Mold” value (mold; Table 8, 1.00% (flour basis))?
The value was 32 days.

And the “Days to Mold” value (mold; Table 9, White Pan Bread, 0.33%)?
Its value is 11 days.

What about the “Days to Mold” value (mold; Table 10, White Pan Bread, 0.33%) of the same compound?
Its value is 15 days.

And the “Days to Mold” value (mold; Table 10, 0.50%)?
The value was 17 days.

And the “pH Bread” value (pH of baked bread; Table 4, 0.33%)?
Its value is 5.60.

What about the “pH Bread” value (pH of baked bread; Table 4, 0.5%) of the same compound?
Its value is 5.45.

What about the “pH Bread” value (pH of baked bread; Table 6, 0.33%) of the same compound?
The value was 5.62.

And the “pH Bread” value (pH of baked bread; Table 7, 0.33%)?
Its value is 5.72.

And the “pH Bread” value (pH of baked bread; Table 8, 0.33% (flour basis))?
Its value is 5.57.

And the “pH Bread” value (pH of baked bread; Table 8, 0.50% (flour basis))?
Its value is 5.57.

And the “pH Bread” value (pH of baked bread; Table 8, 0.75% (flour basis))?
Its value is 5.58.

What about the “pH Bread” value (pH of baked bread; Table 8, 1.00% (flour basis)) of the same compound?
The value was 5.59.
